# Data as given in patent US12545653B2, “Compound as PPAR agonist and application thereof” (USA Elixiria Biotech Inc., priority 2019, dated 2026).
# Values joined by “and” are separate entries in the source; they are usually repeats but may differ in a detail not shown here. Equal entries are not always repeated.
# Key:
# klotho gene = test: In vivo brain transcriptional activity of klotho gene (RT-PCR of brain mRNA); parameters: species or system mouse; details: 10 mg/kg body weight/day tail vein; for mRNA level of klotho gene in the brain of the mouse relative to vehicle control group: after 10 days of continuous injection; for fold induction at 10 mg/kg: Mus musculus, iv, 720 h, after 30 days of continuous injection, read-out: mRNA level of klotho gene in the brain of the mouse relative to vehicle control group
# Protocol: To verify this hypothesis, adult male Kunming mice were used in the experiments. […] The injection volume is 8 ml/kg body weight. Dimethyl sulfoxide (DMSO) was used as a vehicle control of the compounds. […] The RNA was then reverse-transcribed to the cDNA, and quantified by SYBR Green fluorescence quantitative PCR kit (HaiGene) and a quantitative PCR system (Bio-Rad Min-Opticon Type 2) were used for real-time fluorescent quantitative polymerase chain reaction (RT-PCR). The mouse gene primers were design as follows: • KLOTHO-forward 5′-[…]-3′; • LOTHO-reverse 5′-[…]-3′; • GAPDH-forward 5′-[…]-3′; • GAPDH-reverse 5′-[…]-3′.
# Data analysis was performed using the 2^−ΔΔct method. Semi-quantitative values of gene expression were then normalized by the control mean.
# [1] = Blood-brain barrier permeability: brain concentration after a single injection; assay type: in vivo, rat; details: male, rat, in vivo, ip, 10 mg/kg
# Protocol: The blood-brain barrier permeability of carbonyl-containing cyclic compounds is determined in in vivo studies. Healthy male rats used in the study were divided into compound group and control group. […] The brains were dissected, heated immediately at boiling water for 2 min, homogenized with methanol, and centrifuged. The upper layer was collected and dried under vacuum to remove solvents, and then resuspended in methanol. The above samples are filtered through a 0.45 micron nylon membrane, and then 20 microL of sample were load into a high-performance liquid chromatographic (HPLC) system (Model LC-16P, Shimadzu, Japan) to perform quantitative analysis.
# klotho gene promoter = test: In vitro transcriptional activity of klotho gene (KL-Luc-3 luciferase cell line); assay type: cell-based; details: KL-Luc-3 cells; for EC50: 16 h, 16 hours incubation
# Source text: The activities of these carbonyl-containing cyclic compounds are indicated by the increased expression of klotho gene. […] The present invention retains the DNA fragment of the klotho gene promoter, but replaces the DNA sequence of the coding region of the klotho gene with those of luciferase, so that the degree of activation of the klotho gene promoter and the expression of the klotho gene will be sensitively determined by detecting the luciferase luminescence signal.
# Klotho is an important downstream gene of PPARγ pathway. The following experiments tested the properties of the compounds in Table 2 and 3 to activate the klotho gene in vitro. First, a stable cell line, KL-Luc, was constructed. The klotho gene carried by the cell line retained the DNA sequence of klotho gene promoter, but the coding sequence of the klotho gene was replaced with luciferase. KL-Luc fragment includes a promoter sequence of the klotho gene (a DNA region of 18,000 base pairs in length upstream of the transcription start site of the gene) and a luciferase-encoding sequence. To construct the KL-Luc sequence containing lentiviral vector, the KL-Luc fragment was cloned into the pDONR vector using BP recombinase, so that the target fragment had attL recombination sites on both sides. Then the KL-Luc fragment was transferred from the pDONR vector to a lentiviral vector (without exogenous promoter) pLenti6/BLOCK-IT-DEST. The constructed lentiviral vector of the target fragment was then transfected into HEK293T cells, and then the KL-Luc gene lentiviral expression vector and the […] were co-transfected into HEK293T cells to perform lentiviral packaging. The virus was harvested, and virus titer was calculated. And the lentivirus was used to infect target cells. The stable strains were screened by adding drugs. Finally, monoclonal cell lines were selected from polyclonal cells by cell cloning. The effective luciferase expression of each monoclonal cell line was determined by quantitative polymerase chain reaction (qPCR). The inventors chose a third monoclonal cell line (KL-Luc-3) to continue the compound screening. The compounds of interest were the compounds in Table 2 and 3. At the same time, rosiglitazone and pioglitazone were used as a control. KL-Luc-3 cells were divided into 96-well plates at 5000 cells in 80 microL per well, cultured in a 37° C. carbon dioxide incubator with serum-free Duchenne's Modified Eagle's Medium (DMEM) for 6 hours, and then the compounds were added to a final concentration of 0, 0.1, 0.3, 1, 3, 10, 30 micromole/L, with each concentration in triplicate. After 16 hours of incubation, the SteadyLite (PerkinElmer, Waltham, MA) and the GloMax Microplate Luminometer (Promega, USA) were used for quantitation of luciferase activity. The amount of luminescence emitted from each well is positively related to the transcriptional activity of the klotho promoter. A three-parameter Sigmoid function curve was used to fit the obtained data. The abscissa represents the logarithmic value of the concentration, and the ordinate represents the percentage of the activity relative to those of the control. […] In Statistical analysis, the coefficient of variation is used to measure the robustness and repeatability of the experiment. […] The difference is significant with P<0.05. EC50 is a parameter of its activity. The lower the EC50 value, the higher the activity of corresponding compound.
# HEK 293T cells = test: Inhibition of reactive oxygen species production (ROS-Glo H2O2 Assay); assay type: cell-based, human; details: 18 hours incubation
# Protocol: Mitochondrial reactive oxygen species-induced oxidative stress is the source of many diseases. This experiment is used to test whether the carbonyl-containing cyclic compounds provided by the present invention can reduce the production of reactive oxygen species. HEK 293T cells were divided into 96-well plates at 5000 cells per well, cultured in a 37° C. carbon dioxide incubator with serum-free Duchenne's Modified Eagle's Medium (DMEM) for 6 hours, and then representatives for compounds listed in Table 2 and 3 were added to a final concentration of 0, 0.1, 0.3, 1, 3, 10, 30 micromole/L, with each concentration in triplicate. After 18 hours of incubation, the reactive oxygen species detection kit (ROS-Glo™ H2O2 Assay) and the GloMax microplate fluorescence detector (Promega, USA) were used to detect reactive oxygen species production. At the same time, pioglitazone was used as a control. The amount of fluorescence is positively related to the production of reactive oxygen species. A three-parameter Sigmoid function curve was used to fit the obtained data. The abscissa represents the logarithmic value of the concentration, and the ordinate represents the percentage of reduced reactive oxygen species production relative to those of the control. Then EC50 value was calculated with professional software.
# [2] = test system: dIoN-CCI rat model of trigeminal neuropathic pain; details: in vivo
# Source text: A common rat model of trigeminal neuralgia is a chronic compression injury model (CCI) caused by ligation of the infraorbital nerve (IoN). In the present study, an improved rat model of trigeminal neuropathic pain was used, in which CCI is induced by ligation of distal segment of IoN (dIoN). Wild type male Sprague-Dawley rats with body weight 250 to 260 grams underwent dIoN-CCI surgery experiments. The mechanical threshold of pain in rats without surgery experiments will exceed 6 grams. If the dIoN-CCI surgery is successful, it will reduce the pain threshold to less than 2 grams.
# The mice were divided into the following 11 groups with 4 to 5 mice in each group. The formulation used for transdermal treatment is cream. […] The compound administration of each group starts on the third day after successful dIoN-CCI surgery. […] The method for detecting rat facial hypersensitivity is performed using Von Frey filaments. An analysis of variance (ANOVA) and Dunnett post hoc comparison test are used to compare the significance of the differences between different groups of data. The difference is significant with P<0.05.
# [3] = test system: MPTP-HCl Parkinson's disease model mice; test: Parkinson's disease model (MPTP-HCl), beam traversal test; details: MPTP-HCl/probenecid mice, 5 mg/kg body weight intraperitoneal daily, 35 days
# Protocol: Three month-old male wild type mice were used in the experiment. The treatment lasted for a total of 35 days. […] For all abovementioned groups, Motor skills were assessed on the 36th to 40th days after compound administration. Beam traversal test is a method commonly used in academia to detect movement coordination in animals with Parkinson's disease. […] The mice were first trained for 2 consecutive days, and taught to trained to traverse the length of the beam. On the day of the test, a mesh grid (1 cm squares) of corresponding width was placed over the beam surface leaving a ˜1 cm space between the grid and the beam surface. Animals were then videotaped while traversing the grid-surfaced beam for a total of five trials. An error was counted when, during a forward movement, a forelimb or hindlimb slipped through the grid. The number of errors made per step (referred to as “error per step scores”) was counted. An analysis of variance (ANOVA) and Dunnett post hoc comparison test are used to compare the significance of the differences between different groups of data. The difference is significant with P<0.05.
EC50 (klotho gene promoter) [µM],SMILES,mRNA level of klotho gene in the brain of the mouse relative to vehicle control group (klotho gene),fold induction at 10 mg/kg (klotho gene),Cmax [1],AUC(0-t) ([1]; AUC0-6 h) [ng·h/mL],AUC(0-t) ([1]; AUC0-24 h) [ng·h/mL],induced transcriptional activity of klotho gene relative to pioglitazone (klotho gene promoter),induced transcriptional activity of klotho gene relative to rosiglitazone (klotho gene promoter) [folds],klotho EC50 as fraction of that of pioglitazone (klotho gene promoter),klotho EC50 as fraction of that of rosiglitazone (klotho gene promoter),"inhibition of active oxygen production (up to), compared to the DMSO control (HEK 293T cells; 0-30 micromole/L)",side effect at the time of administration [2],number of errors per step in beam traversal test compared with disease control group [3],"EC50 (HEK 293T cells; Homo sapiens, HEK-293T, 18 h) [µM]"
< 9.7,"COc1ccc(CC/C=C/c2ccc3c(c2)C(=O)CC3)cc1 [ELB001116, (E)-6-(4-(4-methoxyphenyl)but-1-en-1-yl)-2,3-dihydro-1H-inden-1-one]",more than twice,> 5,–,–,–,–,–,–,–,–,–,significantly lower,–
< 9.7,"CCc1ccc(CC/C=C/c2ccc3c(c2)OCCC3=O)cc1 [ELB001045, (E)-7-(4-(4-ethylphenyl)but-1-en-1-yl)chroman-4-one]",more than twice,> 5,–,–,–,–,–,–,–,–,–,significantly lower,–
< 9.7,"CCc1ccc(OC/C=C/c2ccc3c(c2)C(=O)CC3)cc1 [ELB001115, (E)-6-(3-(4-ethylphenoxy)prop-1-en-1-yl)-2,3-dihydro-1H-inden-1-one]",more than twice,> 5,–,–,–,–,–,–,–,–,–,significantly lower,–
–,"CCc1ccc(CC/C=C/c2ccc3c(c2)C(=O)COC3)cc1 [ELB001046, (E)-6-(4-(4-ethylphenyl)but-1-en-1-yl)isochroman-4-one]",more than twice,> 5,–,–,–,–,–,–,–,–,–,significantly lower,< 10
< 9.7,"CCc1ccc(CC/C=C/c2ccc3c(c2)C(=O)CC3)nc1 [ELB001125, (E)-6-(4-(5-ethylpyridin-2-yl)but-1-en-1-yl)-2,3-dihydro-1H-inden-1-one]",more than twice,> 5,–,–,–,–,–,–,–,–,–,significantly lower,–

SMILES,EC50 (klotho gene promoter) [µM],mRNA level of klotho gene in the brain of the mouse relative to vehicle control group (klotho gene),fold induction at 10 mg/kg (klotho gene),Cmax [1],AUC(0-t) ([1]; AUC0-6 h) [ng·h/mL],AUC(0-t) ([1]; AUC0-24 h) [ng·h/mL],induced transcriptional activity of klotho gene relative to pioglitazone (klotho gene promoter),induced transcriptional activity of klotho gene relative to rosiglitazone (klotho gene promoter) [folds],klotho EC50 as fraction of that of pioglitazone (klotho gene promoter),klotho EC50 as fraction of that of rosiglitazone (klotho gene promoter),"inhibition of active oxygen production (up to), compared to the DMSO control (HEK 293T cells; 0-30 micromole/L)",side effect at the time of administration [2],number of errors per step in beam traversal test compared with disease control group [3],"EC50 (HEK 293T cells; Homo sapiens, HEK-293T, 18 h) [µM]"
"CCc1ccc(CC/C=C/c2ccc3c(c2)C(=O)CC3)cc1 [ELB00824, (E)-6-(4-(4-ethylphenyl)but-1-en-1-yl)-2,3-dihydro-1H-inden-1-one]",1.5,more than twice,> 5,16.4 µM and 4830 ng/mL,18700,31500,more than 66 folds,6,less than 1/67,1/6,up to 45%,no side effect,–,–
